Patent US9951039B2, “Pyrimidines for treatment of bacterial infections” (The Hong Kong Polytechnic University, priority 2016, dated 2018)
≈ marks a conversion by molar mass, not a printed value. Read-outs that look alike come from different tables or passages of the source.

Tests used:
[1] = test system: USA300 #2690 (community-associated MRSA); test: MIC against clinically isolated strain 9; format: cell-based, S. aureus; details: Staphylococcus aureus
Method: (§1) Procedure of Antimicrobial susceptibility test: The MIC value of compounds was measured in the antimicrobial susceptibility test using the broth microdilution procedure in accordance with the CLSI guidelines.^21 Cation-adjusted Mueller Hinton broth (CA-MHB) was used for all the S. aureus strains in the assay. Cells in exponential phase of growth were diluted to approximately 5×10^5 cfu/mL. Stock solutions of each compound were freshly dissolved in dimethyl sulfoxide (DMSO). Then, serial dilutions of each compound in CA-MHB medium were added into 96-well microplate. The final percentage of DMSO in the assay was 1%. Control experiments were performed with 1% DMSO instead of the compound solution. After being incubated at 37° C. for 18 h, OD600 value of cells was measured on a microplate reader and the percentage of bacterial cell inhibition with respect to controls was calculated. The MIC value was defined as the lowest compound concentration at which the growth of bacteria was inhibited by ≥90%. Three independent assays were performed for each compound.
(§2) Results: Three compounds, namely 14av_amine16, 14dv_amine16 and 14dv_amine06, were selected to be tested against nine in-house clinically isolated bacterial strains including S. aureus ATCC29247, which is an ampicillin resistant strain, S. aureus ATCC BAA-41, ATCC BAA-1717, ATCC BAA-1720, ATCC 43300 which are methicillin resistant strains and four USA300 strains, (#417, #757, #1799 and #2690), which are the predominant strain type of community-associated MRSA strains in the United States.

[2] = test system: S. aureus ATCC BAA-1717 (methicillin resistant); test: MIC against clinically isolated strain 2; format: cell-based; details: Staphylococcus aureus, ATCCBAA1717
Method: as §1, §2

[3] = test system: S. aureus ATCC 29247 (ampicillin resistant strain); test: MIC against clinically isolated strain 1; format: cell-based; details: Staphylococcus aureus, ATCC29247
Method: as §1, §2

[4] = test system: USA300 #757 (community-associated MRSA); test: MIC against clinically isolated strain 7; format: cell-based, S. aureus; details: Staphylococcus aureus
Method: as §1, §2

[5] = test system: USA300 #417 (community-associated MRSA); test: MIC against clinically isolated strain 6; format: cell-based, S. aureus; details: Staphylococcus aureus
Method: as §1, §2

[6] = test system: S. aureus strain ATCC29213; test: MIC, broth microdilution antimicrobial susceptibility test (CLSI); format: cell-based; details: for MIC^c/MIC^b: Selectivity index: E. coli ATCC 25922 MIC over S. aureus 29213 MIC; for MIC: Staphylococcus aureus
From the text: (§3) This example illustrates the evaluation of 2,4,6-trisubstituted pyrimidines 14 for their antimicrobial activities against the Gram positive S. aureus strain ATCC29213 and the Gram negative E. coli strain ATCC25922 by measuring their MIC, which is the lowest concentration of an antimicrobial agent that prevents visible growth of a microorganism in a broth dilution susceptibility test according to the standard method approved by the Clinical and Laboratory Standards Institute (CLSI) guidelines.^21
as §1

[7] = test system: E. coli strain ATCC25922; test: as above; format: cell-based; details: E. coli ATCC 25922, growth inhibited by ≥90%, 18 h; for MIC: Escherichia coli, ATCC25922, read-out: MIC^c: Minimum inhibitory concentration against E. coli
From the text: as §3, §1

[8] = test system: USA300 #1799 (community-associated MRSA); test: MIC against clinically isolated strain 8; format: cell-based, S. aureus; details: Staphylococcus aureus
Method: as §1, §2

[9] = test system: S. aureus ATCC BAA-1720 (methicillin resistant); test: MIC against clinically isolated strain 3; format: cell-based; details: Staphylococcus aureus, ATCCBAA1720
Method: as §1, §2

[10] = test system: S. aureus ATCC BAA-41 (methicillin resistant); test: MIC against clinically isolated strain 4; format: cell-based; details: Staphylococcus aureus, ATCCBAA41
Method: as §1, §2

[11] = test system: S. aureus ATCC 43300 (methicillin resistant); test: MIC against clinically isolated strain 5; format: cell-based; details: Staphylococcus aureus, ATCC43300
Method: as §1, §2

[12] = test system: clinically isolated S. aureus strains; test: MIC against the nine clinically isolated S. aureus strains; format: cell-based; details: Staphylococcus aureus; most of the MRSA strains
Method: as §1, with “compound. […]” for “compound.”

[13] = ATCC29213, S. aureus 29213, growth inhibited by ≥90%, 18 h, read-out: MIC^b: Minimum inhibitory concentration against S. aureus
[14] = S. aureus ATCC29213, read-out: MIC against S. aureus
[15] = S. aureus 29213, growth inhibited by ≥90%, 18 h

| MIC [1] | MIC [2] | MIC [3] | MIC [4] | MIC [5] | MIC [6, 13] | MIC [6, 14] | MIC [7] | MIC [8] | MIC [9] | MIC [10] | MIC [11] | MIC^b: Minimum inhibitory concentration against S. aureus [6, 15] | MIC^c: Minimum inhibitory concentration against E. coli [7] | MIC [12] | Compound | MIC^c/MIC^b: Selectivity index [6] | antibacterial activity in words (SAR analysis) ([6]; MIC screening, S. aureus) |
| --- | --- | --- | --- | --- | --- | --- | --- | --- | --- | --- | --- | --- | --- | --- | --- | --- | --- |
| 10 µM (≈ 4.92 µg/mL) | 5 µM (≈ 2.46 µg/mL) | 5 µM (≈ 2.46 µg/mL) | 10 µM (≈ 4.92 µg/mL) | 10 µM (≈ 4.92 µg/mL) | 5 µM (≈ 2.46 µg/mL) | 5 to 8 µM (≈ 2.46 to 3.93 µg/mL) | > 125 µM | 10 µM (≈ 4.92 µg/mL) | 10 µM (≈ 4.92 µg/mL) | 10 µM (≈ 4.92 µg/mL) | 10 µM (≈ 4.92 µg/mL) |  |  |  | CC(C)c1ccc(CN2CCCN(CCc3cc(-c4ccccc4)nc(-c4ccncc4)n3)CC2)cc1 [Compound 14dv_amine06, 1-(4-isopropylbenzyl)-4-(2-(6-phenyl-2-(pyridin-4-yl)pyrimidin-4-yl)ethyl)-1,4-diazepane] | >25 |  |
|  |  |  |  |  |  |  |  |  |  |  |  | 10 µM (≈ 4.68 µg/mL) | >125 µM |  | Fc1cccc(CN2CCCN(CCc3cc(-c4ccccc4)nc(-c4ccncc4)n3)CC2)c1 [Compound 14dv_amine10] | >12 |  |
|  |  |  |  |  | 5 µM (≈ 2.66 µg/mL) | 5 to 8 µM (≈ 2.66 to 4.25 µg/mL) | > 125 µM |  |  |  |  |  |  |  | FC(F)(F)c1ccc(CCN2CCCN(CCc3cc(-c4ccccc4)nc(-c4ccncc4)n3)CC2)cc1 [Compound 14dv_amine20, 1-(2-(6-phenyl-2-(pyridin-4-yl)pyrimidin-4-yl)ethyl)-4-(4-(trifluoromethyl)phenethyl)-1,4-diazepane] | >25 |  |
|  |  |  |  |  |  |  |  |  |  |  |  | 16 µM (≈ 8.36 µg/mL) | >125 µM |  | CCC(CC)c1cc(CCN2CCCN(Cc3ccc(Br)cc3)CC2)nc(-c2ccncc2)n1 [Compound 14av_amine08] | >7 |  |
| 10 µM (≈ 5.18 µg/mL) | 5 µM (≈ 2.59 µg/mL) | 5 µM (≈ 2.59 µg/mL) | 10 µM (≈ 5.18 µg/mL) | 10 µM (≈ 5.18 µg/mL) | 5 µM (≈ 2.59 µg/mL) | 5 to 8 µM (≈ 2.59 to 4.14 µg/mL) | > 125 µM | 10 µM (≈ 5.18 µg/mL) | 10 µM (≈ 5.18 µg/mL) | 10 µM (≈ 5.18 µg/mL) | 10 µM (≈ 5.18 µg/mL) |  |  |  | FC(F)(F)c1ccc(CN2CCCN(CCc3cc(-c4ccccc4)nc(-c4ccncc4)n3)CC2)cc1 [Compound 14dv_amine16, 1-(2-(6-phenyl-2-(pyridin-4-yl)pyrimidin-4-yl)ethyl)-4-(4-(trifluoromethyl)benzyl)-1,4-diazepane] | >25 |  |

More lines, now with the values behind:

| Compound | MIC [1] | MIC [2] | MIC [3] | MIC [4] | MIC [5] | MIC [6, 13] | MIC [6, 14] | MIC [7] | MIC [8] | MIC [9] | MIC [10] | MIC [11] | MIC^b: Minimum inhibitory concentration against S. aureus [6, 15] | MIC^c: Minimum inhibitory concentration against E. coli [7] | MIC [12] | MIC^c/MIC^b: Selectivity index [6] | antibacterial activity in words (SAR analysis) ([6]; MIC screening, S. aureus) |
| --- | --- | --- | --- | --- | --- | --- | --- | --- | --- | --- | --- | --- | --- | --- | --- | --- | --- |
| CCC(CC)c1cc(CCN2CCCN(Cc3cccc(C(F)(F)F)c3)CC2)nc(-c2ccncc2)n1 [Compound 14av_amine17] |  |  |  |  |  |  |  |  |  |  |  |  | 16 µM (≈ 8.19 µg/mL) | >125 µM |  | >7 |  |
| CCC(CC)c1cc(CCN2CCCN(CCc3ccc(C(F)(F)F)cc3)CC2)nc(-c2ccncc2)n1 [Compound 14av_amine20, 1-(2-(6-(pentan-3-yl)-2-(pyridin-4-yl)pyrimidin-4-yl)ethyl)-4-(4-(trifluoromethyl)phenethyl)-1,4-diazepane] |  |  |  |  |  | 8 µM (≈ 4.21 µg/mL) | 5 to 8 µM (≈ 2.63 to 4.21 µg/mL) | > 125 µM |  |  |  |  |  |  |  | >15 | low MIC value |
| COc1cccc(OC)c1C(=O)N[C@@H]1C(=O)N2[C@@H]1SC(C)(C)[C@@H]2C(=O)O [Methicillin, reference compound] | 15 µM (≈ 5.71 µg/mL) | > 30 µM |  | 30 µM (≈ 11.4 µg/mL) | > 30 µM |  |  |  | 30 µM (≈ 11.4 µg/mL) | > 30 µM | > 30 µM | > 30 µM |  |  | > 30 µM |  |  |
| CCC(CC)c1cc(CCN2CCCN(Cc3ccccc3C(F)(F)F)CC2)nc(-c2ccncc2)n1 [Compound 14av_amine18] |  |  |  |  |  |  |  |  |  |  |  |  | 16 µM (≈ 8.19 µg/mL) | >125 µM |  | >7 |  |
